Broadly, the melting point is the temperature of the solid-liquid transition. Usually IC50 stands for the concentration at which inhibition is half-maximal. A low value points to higher potency.

Counter-ions that a name gives are not always drawn.

Tested on in one series: not given
Experiment: not given
Details: not given
For `CCC1(CCCCN2CCc3sccc3C2)C(=O)Nc2ccc(C)cc21` (stereo not drawn) [Example 30, 3-[4-(6,7-Dihydro-4H-thieno[3,2-c]pyridin-5-yl)-butyl]-3-ethyl-5-methyl-1,3-dihydro-2H-indol-2-one], the melting point lay in the range of 138 to 140 °C. `CCC1(CCCCN2CC=C(c3ccc(Cl)cc3)CC2)C(=O)Nc2ccccc21` (stereo not drawn) gave a melting point of 142 to 145 °C. On the same count and under the same terms, for `CCC1(CCCCCN2CCc3sccc3C2)C(=O)Nc2ccccc21` (stereo not drawn) (as salt: oxalate) [Example 36, 3-[5-(6,7-Dihydro-4H-thieno[3,2-c]pyridin-5-yl)-pentyl]-3-ethyl-1,3-dihydro-2H-indol-2-one monooxalate] the value was 193 to 195 °C; for `CCC1(CCCCN2CCc3sccc3C2)C(=O)Nc2ccc(Br)cc21` (stereo not drawn) [Example 27, 5-Bromo-3-[4-(6,7-dihydro-4H-thieno[3,2-c]pyridin-5-yl)-butyl]-3-ethyl-1,3-dihydro-2H-indol-2-one], 149 to 151 °C; for `CCC1(CCCCN2CCc3sccc3C2)C(=O)Nc2cc(F)c(Cl)cc21` (stereo not drawn) [Example 35, 5-Chloro-3-[4-(6,7-dihydro-4H-thieno[3,2-c]-pyridin-5-yl)-butyl]-3-ethyl-6-fluoro-1,3-dihydro-2H-indol-2-one], 155 to 157 °C.

The compound `CCC1(CCCCN2CCc3sccc3C2)C(=O)Nc2c(Cl)cc(F)cc21` (stereo not drawn) [Example 33, 7-Chloro-3-[4-(6,7-dihydro-4H-thieno[3,2-c]-pyridin-5-yl)-butyl]-3-ethyl-5-fluoro-1,3-dihydro-2H-indol-2-one] displayed a melting point of 194 to 196 °C. The compound `CCC1(CCCCN2CC=C(c3ccc(Cl)cc3)CC2)C(=O)Nc2ccc(F)cc21` (stereo not drawn) had a melting point of 146 to 148 °C. The same measure, in the same setting: for `CCC1(CCCN2CCc3sccc3C2)C(=O)Nc2ccccc21` (stereo not drawn) [Example 23, 3-[3-(6,7-Dihydro-4H-thieno[3,2-c]pyridin-5-yl)-propyl]-3-ethyl-1,3-dihydro-2H-indol-2-one] the value was 130 to 132 °C; for `CC(C)CC1(CCCCN2CCc3sccc3C2)C(=O)Nc2ccccc21` (stereo not drawn) [Example 28, 3-[4-(6,7-Dihydro-4H-thieno[3,2-c]pyridin-5-yl)-butyl]-3-isobutyl-1,3-dihydro-2H-indol-2-one], 114 to 116 °C; for `CCC1(CCCN2CCc3sccc3C2)C(=O)Nc2ccc(Cl)cc21` (stereo not drawn) [Example 24, 5-Chloro-3-[3-(6,7-dihydro-4H-thieno[3,2-c]-pyridin-5-yl)-propyl]-3-ethyl-1,3-dihydro-2H-indol-2-one], 66 to 69 °C. Compound `CCC1(CCCCN2CCc3sccc3C2)C(=O)Nc2ccccc21` (stereo not drawn) (as salt: hydrochloride) [Example 29, 3-[4-(6,7-Dihydro-4H-thieno[3,2-c]pyridin-5-yl)-butyl]-3-ethyl-1,3-dihydro-2H-indol-2-one monohydrochloride] registered a melting point of 143 to 144 °C. On the same count and under the same terms, in the case of `CCC1(CCCCN2CC=C(c3ccc(F)cc3)CC2)C(=O)Nc2ccccc21` (stereo not drawn) (as salt: hydrochloride) [Example 39, 3-Ethyl-3-{4-[4-(4-fluorophenyl)-1,2,3,6-tetrahydropyridin-1-yl]-butyl}-1,3-dihydro-2H-indol-2-one monohydrochloride] it was 108 to 111 °C; in that of `CCC1(CCCCN2CCc3sc(Cl)cc3C2)C(=O)Nc2ccccc21` (stereo not drawn) [Example 34, 3-[4-(2-Chloro-6,7-dihydro-4H-thieno[3,2-c]-pyridin-5-yl)-butyl]-3-ethyl-1,3-dihydro-2H-indol-2-one], 117 to 119 °C; in that of `CCC1(CCCCCN2CCc3sc(Cl)cc3C2)C(=O)Nc2ccccc21` (stereo not drawn) (as salt: hydrochloride) [Example 37, 3-[5-(2-Chloro-6,7-dihydro-4H-thieno[3,2-c]-pyridin-5-yl)-pentyl]-3-ethyl-1,3-dihydro-2H-indol-2-one monohydrochloride], 96 to 98 °C.

`CCC1(CCCCN2CC=C(c3cccc(Cl)c3)CC2)C(=O)Nc2ccc(F)cc21` (stereo not drawn) came in with a melting point of 112 to 114 °C.

The subject of the next series is Male Sprague-Dawley rats. In words: Elevated plus-maze in rats. It counts as in vivo. Conditions: p.o., 60 min after treatment, 5 min test, increase in time spent in or number of entries into the open arms. An excerpt:
The anxiolytic effect of the compounds according to the invention was investigated on rats according to the so-called elevated plus-maze test (S. Pelow, P. Chopin, S. E. File, J. Briley: Neurosci. Methods 14, p. 149 (1985)).
A wooden cross elevated to 50 cm above the floor, 15 cm wide with 100 cm long arms was used for the experiments. The sides and ends of two opposite arms of the cross were equipped with 40 cm high walls, however, the arms were open to the 15 cm×15 cm central area (closed arms). The two other opposite arms were not encircled by walls (open arms).
Male Sprague-Dawley rats weighing 200-220 g were used for the experiments. The animals were placed in the central area of the equipment 60 min after treatment and the following four parameters have been observed for the 5 min test time: […]
time spent in the open arms (sec), time spent in the closed arms (sec), number of entries into the open arms, number of entries into the closed arms.
The effect was expressed as percent increase in either the time spent in the open arms or number of entries into the open arms. MEDs (minimal effective doses) were determined for each compound.
As to `CCC1(CCCCCN2CCc3sccc3C2)C(=O)Nc2ccccc21` (stereo not drawn) [Example 36, 3-[5-(6,7-Dihydro-4H-thieno[3,2-c]pyridin-5-yl)-pentyl]-3-ethyl-1,3-dihydro-2H-indol-2-one monooxalate], the “MED (minimal effective dose)” value is “≦1.0 mg/kg p.o”. For the compound `CCC1(CCCCN2CC=C(c3ccc(F)cc3)CC2)C(=O)Nc2ccccc21` (stereo not drawn) [Example 39, 3-Ethyl-3-{4-[4-(4-fluorophenyl)-1,2,3,6-tetrahydropyridin-1-yl]-butyl}-1,3-dihydro-2H-indol-2-one monohydrochloride], the “MED (minimal effective dose)” value came to 0.01 mg/kg p.o.

The next series has as its target T1, 5-HT1A receptors (Rattus norvegicus, UniProt P19327).
T1 construct: from tissue; host or cells: rat frontal cortex membrane preparation
T1 sequence (P19327 1-422): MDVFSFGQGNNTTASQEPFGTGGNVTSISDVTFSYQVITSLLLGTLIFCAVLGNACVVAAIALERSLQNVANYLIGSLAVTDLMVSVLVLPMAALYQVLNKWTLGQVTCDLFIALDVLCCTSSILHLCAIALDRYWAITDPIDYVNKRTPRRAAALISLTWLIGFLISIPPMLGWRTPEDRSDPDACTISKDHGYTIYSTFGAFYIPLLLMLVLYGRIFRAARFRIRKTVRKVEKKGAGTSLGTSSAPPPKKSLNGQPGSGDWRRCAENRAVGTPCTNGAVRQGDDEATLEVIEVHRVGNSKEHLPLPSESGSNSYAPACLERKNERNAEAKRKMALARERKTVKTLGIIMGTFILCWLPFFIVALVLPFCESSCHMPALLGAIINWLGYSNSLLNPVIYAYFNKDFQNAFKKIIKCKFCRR
In words: 5-HT1A receptor binding experiment. As to conditions: isolated frontal cortex membrane preparation of rats, tritiated 8-OH-DPAT ligand, 25° C., 30 minutes. Here is the method:
Binding of the compounds of the general Formula (I) to 5-HT1A receptors was investigated according to the method of Peroutka (S. J. Peroutka: J. Neurochem. 47, p. 529 (1986)).
Receptor bindings were determined from isolated frontal cortex membrane preparation of rats by using tritiated 8-hydroxy-N,N-dipropyl-2-amino-tetraline (8-OH-DPAT) ligand. For the determination of non-specific binding 10 μM serotonin creatinine sulfate was used. The following conditions were applied: incubation […] volume: 250 μl, incubation temperature: 25° C., incubation time: 30 minutes. The reaction was terminated by the addition of 9 ml of 50 mM ice-cold TRIS-HCl buffer (pH=7.7) and quick vacuum filtration using Whatman GFIB fibreglass filtering paper. Radioactivity of the filter boards was measured with the aid of a liquid scintillation spectrometer.
IC50 is the concentration whereby the difference between whole binding and non-specific binding in the presence of 10 μM serotonin creatinine sulfate is 50%. The compounds with an IC50 value smaller than […] were considered effective in this test.
In turn, `CCC1(CCCCCN2CCc3sc(Cl)cc3C2)C(=O)Nc2ccccc21` (stereo not drawn) [Example 37, 3-[5-(2-Chloro-6,7-dihydro-4H-thieno[3,2-c]-pyridin-5-yl)-pentyl]-3-ethyl-1,3-dihydro-2H-indol-2-one monohydrochloride] displayed an IC50 greater than 0.1 µM. Still for that read-out and setting: for `CCC1(CCCCN2CCc3sccc3C2)C(=O)Nc2ccc(Cl)cc21` (stereo not drawn) [Example 26, 5-Chloro-3-[4-(6,7-dihydro-4H-thieno[3,2-c]-pyridin-5-yl)-butyl]-3-ethyl-1,3-dihydro-2H-indol-2-one monohydrochloride] the value was greater than 0.1 µM. Still for that read-out and setting: in the case of `CCC1(CCCCN2CCc3sccc3C2)C(=O)Nc2ccccc21` (stereo not drawn) [Example 29, 3-[4-(6,7-Dihydro-4H-thieno[3,2-c]pyridin-5-yl)-butyl]-3-ethyl-1,3-dihydro-2H-indol-2-one monohydrochloride] it was greater than 0.1 µM; in that of `CCC1(CCCCCN2CCc3sccc3C2)C(=O)Nc2ccccc21` (stereo not drawn) [Example 36, 3-[5-(6,7-Dihydro-4H-thieno[3,2-c]pyridin-5-yl)-pentyl]-3-ethyl-1,3-dihydro-2H-indol-2-one monooxalate], greater than 0.1 µM.
